Patent publication US20240366594A1, “Small Molecule Inhibitors of Formation of Neutrophil-Derived Extracellular Traps (NETosis) and Uses Thereof” (The Brigham and Women's Hospital, Inc., priority 2021, published 2024)

What was measured:
mouse neutrophils = assay: Citrullinated histone H3 (CitH3) NET induction in PMA-stimulated mouse neutrophils; format: cell-based
Protocol: FIGS. 1A-H. Class I/II HDACs drive NET formation • (A and B) Freshly purified human (A) or mouse (B) neutrophils were treated with the indicated HDAC inhibitors at different doses (10, 2, 0.4, 0.08 μM), or with GSK484 (10 μM), for 1 h and then stimulated with 1 μM PMA for 3 h. Cells were fixed and stained with anti-citrullinated histone H3 (CitH3) antibody. NETosis induction was measured as the level of anti-CitH3 fluorescent signal. PMA alone represents 100% of NET induction. “-”: Cells treated with the highest dose of the indicated drug but not activated with PMA. • (C and D) Human neutrophils were treated, or not, with ricolinostat or GSK484 and then stimulated with 1 μM PMA. NETosis induction was measured as area of nuclei stained with DAPI. (C) 3D reconstruction of nuclei in each treatment (grid size 7.8 μm). (D) Quantification of DAPI signal from multiple fields of view (D) (n=9 for unstimulated, not pretreated with any drug [NT] and ricolinostat, n=7 for GSK484). • (E and F) Human neutrophils were treated as in (C-D), and immunoblot analysis of the indicated proteins was performed. Relative quantification of band intensity was analyzed with ImageJ software (F). White violins plots depict the quantification of histone H3 acetylation; red violin plots depict the quantification of histone H3 citrullination. Immunoblot in E is representative of four independent experiments. Gasdermin D NT, gasdermin D N terminal; pMLKL, phospho-MLKL. • (G) Human (left) or murine (right) neutrophils were treated, or not, with ricolinostat (10 μM) and then stimulated with 1 μM PMA for 3 h. ROS production was measured by luminescence with luminol-HRP. Histograms represent the total amount of ROS produced overtime. • (H) Murine neutrophils were treated, or not, with ricolinostat (10 μM) and then stimulated with fluorescent E. coli at the indicated multiplicity of infection (MOI) for 1 h. The histogram represents the percentage of neutrophils positive for E. coli staining. Graphs show mean±SEM. Statistics were calculated using one-way ANOVA (A, B, D) and two-way ANOVA (F, G, H) (*p<0.05; **p<0.01; ****p<0.0001. n.s., not significant). Statistics refers to the comparison with neutrophils stimulated with PMA alone (A, B). […]
FIGS. 5A-J. Class I/II HDACs drive NET formation. • A) Quantification of extracellular DNA released by neutrophils treated, or not, with 1 μM GSK484 for 1 h and then stimulated with 1 μM PMA for 4 hours. […] Extracellular DNA release was assessed in the supernatant 3 hours after PMA stimulation. […] NETosis induction was measured as level of anti-CitH3 fluorescent signal. […] NET induction was measured as in (C). […]

human neutrophils = assay: Citrullinated histone H3 (CitH3) NET induction in PMA-stimulated human neutrophils; format: cell-based; conditions: for NETosis (anti-CitH3 signal), comparison of class I/IIb and class IIb selective inhibitors: drugs 10, 2, 0.4, 0.08 μM 1 hour, then 1 μM PMA 3 hours, FIG. 5F
Protocol: FIGS. 1A-H. Class I/II HDACs drive NET formation • (A and B) Freshly purified human (A) or mouse (B) neutrophils were treated with the indicated HDAC inhibitors at different doses (10, 2, 0.4, 0.08 μM), or with GSK484 (10 μM), for 1 h and then stimulated with 1 μM PMA for 3 h. Cells were fixed and stained with anti-citrullinated histone H3 (CitH3) antibody. NETosis induction was measured as the level of anti-CitH3 fluorescent signal. PMA alone represents 100% of NET induction. “-”: Cells treated with the highest dose of the indicated drug but not activated with PMA. • (C and D) Human neutrophils were treated, or not, with ricolinostat or GSK484 and then stimulated with 1 μM PMA. NETosis induction was measured as area of nuclei stained with DAPI. (C) 3D reconstruction of nuclei in each treatment (grid size 7.8 μm). (D) Quantification of DAPI signal from multiple fields of view (D) (n=9 for unstimulated, not pretreated with any drug [NT] and ricolinostat, n=7 for GSK484). • (E and F) Human neutrophils were treated as in (C-D), and immunoblot analysis of the indicated proteins was performed. Relative quantification of band intensity was analyzed with ImageJ software (F). White violins plots depict the quantification of histone H3 acetylation; red violin plots depict the quantification of histone H3 citrullination. Immunoblot in E is representative of four independent experiments. Gasdermin D NT, gasdermin D N terminal; pMLKL, phospho-MLKL. • (G) Human (left) or murine (right) neutrophils were treated, or not, with ricolinostat (10 μM) and then stimulated with 1 μM PMA for 3 h. ROS production was measured by luminescence with luminol-HRP. Histograms represent the total amount of ROS produced overtime. • (H) Murine neutrophils were treated, or not, with ricolinostat (10 μM) and then stimulated with fluorescent E. coli at the indicated multiplicity of infection (MOI) for 1 h. The histogram represents the percentage of neutrophils positive for E. coli staining. Graphs show mean±SEM. Statistics were calculated using one-way ANOVA (A, B, D) and two-way ANOVA (F, G, H) (*p<0.05; **p<0.01; ****p<0.0001. n.s., not significant). Statistics refers to the comparison with neutrophils stimulated with PMA alone (A, B). Gray stars represent comparison of all experimental groups with the unstimulated control, and black stars represent comparison between drug-treated groups and cells treated with PMA only (NT) (D). See also FIGS. 5A-J.
FIGS. 5A-J. Class I/II HDACs drive NET formation. • A) Quantification of extracellular DNA released by neutrophils treated, or not, with 1 μM GSK484 for 1 h and then stimulated with 1 μM PMA for 4 hours. Unstimulated, neutrophils not treated with drugs were used as a control. • B) Freshly purified human neutrophils were treated with the indicated HDAC inhibitors at different doses (0.08, 0.4, 2 and 10 μM) for 1 hour. Extracellular DNA release was assessed in the supernatant 3 hours after PMA stimulation. The dotted line represents the amount of DNA released from neutrophils treated with PMA alone. “-”: cells treated with the highest dose of the indicated drug but not activated with PMA. • C) Freshly purified human neutrophils were stimulated for 1 h, 3 h or 5 h. Cells were fixed and stained with an anti-CitH3 antibody. NETosis induction was measured as level of anti-CitH3 fluorescent signal. 5h-PMA treatment represents 100% NET induction. • D) Representative images of freshly isolated human neutrophils treated or not with 10 μM of the indicated drugs and stimulated with 1 μM PMA for 3 hours. Cells were fixed and then stained for CitH3 (red) and nuclei (blue). Scale bar=100 μm. • E) Murine neutrophils were treated with ricolinostat or GSK484 and then stimulated with […] for 3 hours. NET induction was measured as in (C). […]

## O=C(CCCCCCNC(=O)c1cnc(N(c2ccccc2)c2ccccc2Cl)nc1)NO [citarinostat]
Mouse neutrophils; murine neutrophils, PMA, FIG. 5J
  NET formation (level of CitH3): inhibited NET formation to a comparable extent
Human neutrophils; 10, 2, 0.4, 0.08 μM for 1 h, then 1 μM PMA, FIGS. 5H, 5I
  NET formation (level of CitH3), two independent donors: inhibited NET formation to a comparable extent

## Nc1ccccc1NC(=O)c1ccc(CNC(=O)OCc2cccnc2)cc1 [entinostat]
Mouse neutrophils; drugs 10, 2, 0.4, 0.08 μM for 1 h, then 1 μM PMA 3 h, FIG. 1B
  release of CitH3 (NET induction): no effect
Human neutrophils; drugs 10, 2, 0.4, 0.08 μM or GSK484 10 μM for 1 h, then 1 μM PMA 3 h, FIGS. 1A and 5D
  NET induction, measured as CitH3 staining: prevented NET release in a dose-dependent manner with an efficacy comparable with GSK484

## CCCCN(Cc1ccc(C(=O)NO)cc1)C(=O)Nc1ccccc1 [nexturastat]
Human neutrophils
  NETosis (anti-CitH3 signal), comparison of class I/IIb and class IIb selective inhibitors: selective class IIb targeting did not

## O=C(CCCCCCC(=O)Nc1ccc([C@H]2O[C@@H](CSc3nc(-c4ccccc4)c(-c4ccccc4)o3)C[C@@H](c3ccc(CO)cc3)O2)cc1)NO [tubacin]
Human neutrophils
  NETosis (anti-CitH3 signal), comparison of class I/IIb and class IIb selective inhibitors: class I/IIb HDAC inhibition prevented NETosis

## CN1CCc2c(c3ccccc3n2Cc2ccc(C(=O)NO)cc2)C1 [tubastatin A]
Human neutrophils
  NETosis (anti-CitH3 signal), comparison of class I/IIb and class IIb selective inhibitors: selective class IIb targeting did not
